From ChEMBL document CHEMBL4251583, “Quinoxaline: An insight into the recent pharmacological advances” (Eur J Med Chem, 2018) come the findings set out here.

Values after ≈ are worked out from the molar mass of the structure shown.

Data set [1] has as its system Plasmodium falciparum. Description: Antiplasmodial activity against Plasmodium falciparum K1 infected in human erythrocytes preincubated for 24 hrs followed by [3H]hypoxanthine addition measured after 24 hrs by scintillation counting. It is filed as functional, organism-based.
In data set [2] the test system is Mycobacterium tuberculosis. Briefly: Antitubercular activity against Mycobacterium tuberculosis H37Rv after 5 days by MABA method. Format: functional. To be noted: 120 h.
The test system of data set [3] is Staphylococcus aureus. Description: Antibacterial activity against Staphylococcus aureus ATCC 25923 after 18 hrs by broth microdilution method. It is filed as functional. To be noted: ATCC 25923, 18 h.
Data set [4] relates to Escherichia coli. Briefly: Antibacterial activity against Escherichia coli ATCC 25922 after 18 hrs by broth microdilution method. It is filed as functional. To be noted: ATCC 25922, 18 h.
The test system of data set [5] is Proteus vulgaris. Description: Antibacterial activity against Proteus vulgaris ATCC 29905 after 18 hrs by broth microdilution method. Format: functional. To be noted: ATCC 29905, 18 h. In general terms: Dilution methods test growth across graded concentrations, often in twofold steps.
In data set [6] the test system is Pseudomonas aeruginosa. Briefly: Antibacterial activity against Pseudomonas aeruginosa ATCC 27853 after 18 hrs by broth microdilution method. It is filed as functional. To be noted: ATCC 27853, 18 h.
In data set [7] the test system is Salmonella typhimurium. Description: Antibacterial activity against […] ATCC 14028 after 18 hrs by broth microdilution method. Format: functional, Salmonella enterica subsp. enterica serovar Typhimurium. To be noted: Salmonella enterica, ATCC 14028, 18 h.
For data set [8], the system named is Rattus norvegicus. Description: Antiinflammatory activity in carrageenan-induced paw edema rat model assessed as inhibition of carrageenan-induced edema relative to control. Format: functional. Background: In the carrageenan paw model, swelling and tenderness develop within hours.
Data set [9] in a line: Therapeutic index, ratio of CC50 for human MT4 cells to EC50 for HIV1 infected in human MT4 cells. To be noted: uninfected versus HIV1-infected, read-out: Ratio EC50. It is filed as toxicity, cell-based.
The test system of data set [10] is Rattus norvegicus. Description: Antiinflammatory activity in carrageenan-induced paw edema Wistar rat model assessed as protection against edema formation up to 2000 mg/kg, po measured 3 hrs post dose relative to control. Format: functional.
The test system of data set [11] is WI-38. Briefly: Cytotoxicity against human WI38 cells assessed as cell growth inhibition after 48 hrs by SRB assay. It is filed as cell-based. The settings on record: WI-38, 48 h.
For data set [12], the system named is SK-N-SH. Briefly: Antiproliferative activity against human SK-N-SH cells after 72 hrs by MTT assay. It is filed as functional, cell-based.
The test system of data set [13] is IMR-32. Description: Antiproliferative activity against human IMR32 cells after 72 hrs by MTT assay. It is filed as functional, cell-based. The settings on record: IMR-32, 72 h.
The test system of data set [14] is Plasmodium falciparum. Briefly: Antiplasmodial activity against chloroquine-resistant Plasmodium falciparum FCR-3 infected in human erythrocytes after 3 days by [3H]-hypoxanthine incorporation assay. It is filed as functional, organism-based. To be noted: FCR-3/Gambia.
For data set [15], the system named is Rattus norvegicus. Briefly: Antiinflammatory activity in carrageenan-induced paw edema Fisher 344 rat model assessed as protection against carrageenan-induced edema at 0.01 mmol/kg, ip administered simultaneously with carrageenan measured at 3.5 hrs post carrageenan injection relative to control. It is filed as functional. To be noted: Fisher 344, ip.
A short description of data set [16]: Selectivity index, ratio of IC50 for human KB cells to IC50 for Plasmodium falciparum K1 infected in human erythrocytes. Format: toxicity, cell-based. The settings on record: read-out: Ratio IC50.

For the compound `COc1ccc2c(c1)[n+]([O-])c(C#N)c(-c1ccco1)[n+]2[O-]`, the IC50 (as a rule, the concentration needed to halve the response being measured) in [1] is 280 nM.

With `O=c1[nH]c2ccccc2[nH]/c1=N/N=C/[C@@H]1O[C@H](CO)[C@@H](O)[C@H](O)[C@@H]1O`, the minimum inhibitory concentration (MIC) (as a rule, the lowest concentration that inhibits growth of the organism) in data set [2] came out at 0.65 µM (≈ 0.228 µg/mL); in [3], 2.07 µM (≈ 0.725 µg/mL); in data set [4] it was 2.07 µM (≈ 0.725 µg/mL); in data set [5] it was 2.07 µM (≈ 0.725 µg/mL); in data set [6], 2.07 µM (≈ 0.725 µg/mL); in [7] it was 2.07 µM (≈ 0.725 µg/mL).

`O=c1[nH]c2ccccc2[nH]/c1=N/N=C/[C@@H]1O[C@H](CO)[C@@H](O[C@H]2O[C@H](CO)[C@@H](O)[C@H](O)[C@H]2O)[C@H](O)[C@H]1O`: the minimal inhibitory concentration (MIC) in data set [2] was determined as 0.65 µM (≈ 0.333 µg/mL); in [3] it was 2.07 µM (≈ 1.06 µg/mL); in data set [4] it was 2.07 µM (≈ 1.06 µg/mL); in [5], 2.07 µM (≈ 1.06 µg/mL); in data set [6], 2.07 µM (≈ 1.06 µg/mL); in data set [7] it was 2.07 µM (≈ 1.06 µg/mL).

Take `COc1ccc(/C=N/N=c2/[nH]c3ccc(C)cc3nc2CCC(=O)O)cc1`: in [8], the “inhibition (INH)” value came out at 69.85%.

`Cc1cc2ncc(=O)n(CC(O)CO)c2cc1C` (stereo not given): the selectivity ratio in data set [9] was 73.

`Cc1nc2ccccc2nc1CCC(=O)N/N=C/c1ccc(O)cc1`: in [10], the “inhibition (INH)” value was 55.3 - 65.9%.

As to `O=c1[nH]c2ccccc2[nH]/c1=N/N=C/[C@@H]1O[C@H](CO)[C@@H](O)[C@H](O)[C@H]1O`, the MIC came to 0.65 µM (≈ 0.228 µg/mL) in [2]; 2.07 µM (≈ 0.725 µg/mL) in data set [3]; 2.07 µM (≈ 0.725 µg/mL) in [4]; 2.07 µM (≈ 0.725 µg/mL) in [5]; 2.07 µM (≈ 0.725 µg/mL) in data set [6]; 2.07 µM (≈ 0.725 µg/mL) in data set [7].

Consider `COc1ccc(/C=N/N=c2/[nH]c3ccccc3nc2CCC(=O)O)cc1`, for which, in [8], the “inhibition (INH)” value came out at 66.04%.

`Brc1ccc2c(c1)n1nnnc1c1nnnn21`: the IC50 in data set [11] was above 100 µg/mL.

As to `Brc1ccc2nc(N3CCCCC3)c3nnnn3c2c1`, the IC50 in data set [11] was above 100 µg/mL.

Take `Cc1nc2ccccc2nc1CCC(=O)N/N=C/c1ccc(Cl)cc1`: the “inhibition (INH)” value in data set [10] is given as 55.3 - 65.9%.

Take `Cc1nc2ccccc2nc1CCC(=O)N/N=C/c1ccco1`: in data set [10], the “inhibition (INH)” value is given as 55.3 - 65.9%.

For `c1ccc2nccnc2c1` [QUINOXALINE], the figures for the IC50 in data set [12] and in [13] were 4.6 µM and 13 µM, respectively.

`O=c1[nH]c2ccccc2[nH]/c1=N/N=C/[C@@H]1O[C@H](CO)[C@@H](O[C@@H]2O[C@H](CO)[C@H](O)[C@H](O)[C@H]2O)[C@H](O)[C@H]1O`: the MIC in data set [2] was found to be 0.65 µM (≈ 0.333 µg/mL); in data set [3] it was 2.07 µM (≈ 1.06 µg/mL); in [4], 2.07 µM (≈ 1.06 µg/mL); in data set [5], 2.07 µM (≈ 1.06 µg/mL); in [6], 2.07 µM (≈ 1.06 µg/mL); in data set [7], 2.07 µM (≈ 1.06 µg/mL).

Regarding `Cc1c(C(=O)/C=C/c2ccc3ccccc3c2)[n+]([O-])c2ccccc2[n+]1[O-]`, the IC50 in [14] stood at 5.8 µM.

With `COc1ccc2nc(C)c(-c3cc(-c4cc(OC)c(OC)c(OC)c4)nc(N)n3)nc2c1`, the inhibition in vivo (as a rule, the relative decrease from the control value, in per cent) at 10 µmol/kg in [15] was 41%.

For the compound `O=[N+]([O-])c1ccc(C2OC2c2cnc3ccccc3n2)o1` (stereo not given), the IC50 is 3.9 µM in data set [12] and 5 µM in [13].

Regarding `Cc1nc2ccccc2nc1CCC(=O)N/N=C/c1c[nH]c2ccccc12`, in data set [10], the “inhibition (INH)” value is recorded as 55.3 - 65.9%.

Compound `N#Cc1c(-c2ccco2)[n+]([O-])c2ccccc2[n+]1[O-]` showed an IC50 in [1] of 630 nM. In addition, in data set [16], the selectivity ratio is 10.3.

Regarding `Brc1ccc2nc(N3CCOCC3)c3nnnn3c2c1`, the IC50 in data set [11] is above 100 µg/mL.

Consider `CC(C)Cc1ccc(C(C)C(=O)O)cc1` (stereo not given) [IBUPROFEN], for which the “inhibition (INH)” value in data set [10] turned out to be 73.5%.

Compound `COc1cc(/C=C/C(=O)c2c(C)[n+]([O-])c3ccccc3[n+]2[O-])cc(OC)c1OC` returned an IC50 in data set [14] of 6.2 µM.

As to `Cc1nc2ccccc2nc1CCC(=O)N/N=C/c1ccccc1`, the “inhibition (INH)” value in data set [10] is 55.3 - 65.9%.

Consider `COc1ccc2c(c1)c(CC(=O)O)c(C)n2C(=O)c1ccc(Cl)cc1` [INDOMETHACIN], for which the inhibition in vivo at 10 µmol/kg in data set [15] was determined as 47%. The “inhibition (INH)” value in [8] is 79.5%.

As for `[N-]=[N+]=Nc1nc2cc(Br)ccc2nc1Cl`, the IC50 in [11] was above 100 µg/mL.

On to `Cc1nc2ccccc2nc1CCC(=O)N/N=C/c1ccc(N(C)C)cc1`, for which the “inhibition (INH)” value in data set [10] is listed as 55.3 - 65.9%.
